This note sets out measurements from BindingDB's records for doi:10.7270/Q2668BMS (Burnham Center For Chemical Genomics, 2010).

Values joined by “and” are separate entries in the source; they are usually repeats but may differ in a detail not shown here. Identical values can stand only once. Bounds are passed on as bounds.

The target in this assay is T1, Amyloid-beta A4 precursor protein-binding family A member 1 (Rattus norvegicus, UniProt O35430).
T1 sequence (O35430 whole entry): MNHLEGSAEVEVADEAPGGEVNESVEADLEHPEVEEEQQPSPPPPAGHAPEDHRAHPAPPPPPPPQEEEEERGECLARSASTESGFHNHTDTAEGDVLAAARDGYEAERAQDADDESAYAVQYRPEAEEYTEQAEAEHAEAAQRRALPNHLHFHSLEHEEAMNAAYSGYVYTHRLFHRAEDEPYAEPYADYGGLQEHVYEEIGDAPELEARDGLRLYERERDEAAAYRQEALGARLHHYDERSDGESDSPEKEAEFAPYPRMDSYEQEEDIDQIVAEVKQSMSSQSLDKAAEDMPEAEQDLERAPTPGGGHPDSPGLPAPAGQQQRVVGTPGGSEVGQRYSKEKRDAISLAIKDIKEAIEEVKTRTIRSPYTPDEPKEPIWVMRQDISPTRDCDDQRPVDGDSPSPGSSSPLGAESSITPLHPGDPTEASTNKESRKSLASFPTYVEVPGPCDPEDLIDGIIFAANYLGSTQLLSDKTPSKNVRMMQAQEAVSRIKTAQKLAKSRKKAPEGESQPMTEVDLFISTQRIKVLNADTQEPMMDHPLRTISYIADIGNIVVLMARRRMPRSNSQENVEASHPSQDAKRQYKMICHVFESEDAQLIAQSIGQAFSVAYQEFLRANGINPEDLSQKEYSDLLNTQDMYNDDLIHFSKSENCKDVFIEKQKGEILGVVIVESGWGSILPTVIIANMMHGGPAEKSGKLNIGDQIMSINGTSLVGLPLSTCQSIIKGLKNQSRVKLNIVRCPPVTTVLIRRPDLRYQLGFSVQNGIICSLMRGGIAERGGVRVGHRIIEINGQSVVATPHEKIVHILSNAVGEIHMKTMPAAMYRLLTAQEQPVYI
Nature of the assay: disruptors of Mint-PDZ/N-type channel peptide interaction – biochemical, HTRF, set 2, SAR follow-up (AID 434980).

In the case of `CC(=O)Oc1cccc(-n2c(O)c3c(c2O)C2(C)C=CC3(C)O2)c1`, the IC50 was 9.86 µM and 9.63 µM.
Next, `Cc1ccc(-n2c(O)c3c(c2O)C2(C)C=CC3(C)O2)cc1`: above 56.8 µM.
For `CC12C=CC(C)(O1)c1c2c(O)n(-c2ccc(F)cc2)c1O` [2-(4-fluorophenyl)-4,7-dimethyl-3a,7a-dihydro-octahydro-1H-4,7-epoxyisoindole-1,3-dione], the half-maximal inhibitory concentration (IC50) is 8.89 µM.
Next, `CC12C=CC(C)(O1)c1c2c(O)n(-c2ccccc2)c1O` [4,7-dimethyl-2-phenyl-3a,7a-dihydro-octahydro-1H-4,7-epoxyisoindole-1,3-dione]: 10.5 µM; `COC(=O)c1cc(-n2c(O)c3c(c2O)C2(C)C=CC3(C)O2)ccc1Cl` [MLS000107828]: above 56.8 µM.
With `CC12C=CC(C)(O1)c1c2c(O)n(-c2ccc3c(c2)OCO3)c1O`, the IC50 is above 56.8 µM.
Next, `Cc1cccc(-n2c(O)c3c(c2O)C2(C)C=CC3(C)O2)c1` [4,7-dimethyl-2-(3-methylphenyl)-3a,7a-dihydro-octahydro-1H-4,7-epoxyisoindole-1,3-dione]: 8.93 µM; `CC12C=CC(C)(O1)c1c2c(O)n(-c2ccc(Cl)cc2)c1O`: above 56.8 µM; `CC(=O)Oc1ccc(-n2c(O)c3c(c2O)C2C=CC3O2)cc1` [[4-(1,3-dioxo-3a,4,7,7a-tetrahydro-octahydro-1H-4,7-epoxyisoindol-2-yl)phenyl] acetate]: 18.8 µM.
`CC(=O)Oc1ccc(-n2c(O)c3c(c2O)C2(C)C=CC3(C)O2)cc1` [MLS000107813] gave a half-inhibitory concentration (IC50) of 6.39 µM.
As for `CCCc1ccc(CC2=C(C(=O)OCC)C(=O)c3ccccc3C2=O)cc1` [MLS000571357], the figure is 5.7 µM.
